± gives the expanded uncertainty stated by the source.
Conditions: for viscosity / mass density: 101.33 kPa; for viscosity / mass density / vapor or sublimation pressure: Liquid; for viscosity: Capillary tube (Ostwald / Ubbelohde) method; for surface tension liquid-gas: Drop volume; for mass density: Pycnometric method; for vapor or sublimation pressure: Closed cell (Static) method

CC(O)COC(C)COC(C)COC(C)CO (stereo not drawn) [2-[2-[2-(2-hydroxypropoxy)propoxy]propoxy]-1-propanol]
Conditions	mass density [kg/m3]	surface tension liquid-gas [mN/m]	vapor or sublimation pressure [kPa]	viscosity [mPa·s]
288.15 K	–	–	–	105.44 ± 1.4
293.15 K	–	–	–	67.81 ± 0.43
298.15 K	1019.6 ± 0.3	34.3 ± 0.2	–	–
299.15 K	–	–	–	44.89 ± 0.24
303.15 K	–	–	–	35.66 ± 0.2
308.15 K	1013.7 ± 0.3	33.4 ± 0.2	–	27.85 ± 0.17
313.15 K	–	–	–	22.48 ± 0.15
318.15 K	1007.9 ± 0.4	32.6 ± 0.2	–	17.97 ± 0.13
323.15 K	–	–	–	14.32 ± 0.12
328.15 K	1001.3 ± 0.4	31.8 ± 0.2	–	11.58 ± 0.12
333.15 K	–	–	–	9.39 ± 0.11
338.15 K	995.4 ± 0.4	–	–	7.65 ± 0.11
344.15 K	–	–	–	6.04 ± 0.11
348.15 K	988.8 ± 0.4	30.2 ± 0.2	–	5.22 ± 0.1
353.15 K	985.1 ± 0.4	–	–	4.42 ± 0.1
358.15 K	982.5 ± 0.5	–	–	3.84 ± 0.1
363.15 K	979 ± 0.5	–	–	3.38 ± 0.1
368.15 K	975.5 ± 0.5	28.5 ± 0.2	–	3 ± 0.1
373.15 K	–	–	–	2.62 ± 0.1
378.15 K	–	27.7 ± 0.2	–	2.28 ± 0.1
383.15 K	965.4 ± 0.5	–	–	1.9 ± 0.1
388.15 K	–	–	–	1.48 ± 0.1
393.15 K	958.7 ± 0.5	–	–	1.02 ± 0.1
398.15 K	–	26.1 ± 0.2	–	–
403.15 K	951.4 ± 0.5	–	–	–
408.15 K	–	25.2 ± 0.2	–	–
409.85 K	–	–	0.01	–
413.15 K	944.3 ± 0.6	–	–	–
418.15 K	–	24.4 ± 0.2	–	–
423.15 K	937 ± 0.6	–	–	–
428.15 K	–	23.6 ± 0.2	–	–
433.15 K	928.9 ± 0.6	–	–	–
438.15 K	–	22.7 ± 0.2	–	–
443.15 K	919.4 ± 0.6	–	–	–
448.15 K	–	21.9 ± 0.2	–	–
458.15 K	–	21.1 ± 0.2	–	–
462.55 K	–	–	2.68 ± 0.03	–
468.15 K	–	20.2 ± 0.2	–	–
480.15 K	–	–	5.34 ± 0.03	–
486.15 K	–	–	6.66 ± 0.03	–
492.15 K	–	–	8.02 ± 0.03	–
500.15 K	–	–	10.72 ± 0.04	–
507.15 K	–	–	13.36 ± 0.04	–
513.15 K	–	–	16.05 ± 0.04	–
518.15 K	–	–	18.79 ± 0.05	–
522.15 K	–	–	21.34 ± 0.05	–
527.15 K	–	–	24.02 ± 0.05	–
530.15 K	–	–	26.71 ± 0.06	–
537.15 K	–	–	32.05 ± 0.06	–
543.15 K	–	–	37.42 ± 0.07	–
545.15 K	–	–	40.02 ± 0.08	–
550.15 K	–	–	45.37 ± 0.09	–
554.15 K	–	–	50.69 ± 0.1	–
556.15 K	–	–	53.36 ± 0.1	–
560.15 K	–	–	58.74 ± 0.11	–
564.15 K	–	–	64.02 ± 0.12	–
567.15 K	–	–	69.28 ± 0.13	–
570.15 K	–	–	74.63 ± 0.14	–
575.15 K	–	–	83.34 ± 0.15	–
582.15 K	–	–	101.02 ± 0.18	–

Reference: the NIST ThermoML archive (doi:10.1021/je4004977)
